Test results from patent publication US20050090471A1, “Inhibitors of cyclin-dependent kinases, compositions and uses related thereto” (GPC Biotech, Inc, priority 2001, published 2005).
pIC50: −log10 of the molar value.

Assays:
arrested HCT-116 cells = test: Arrested cell assay (serum starvation), HCT-116; format: cell-based, human; parameters: unit not given here; details: serum-starved arrested cells; unit not given
Experimental: Cyclin-dependent kinase (Cdk) activity is required to promote the progression of cells through distinct phases of the cell division cycle. The proliferation of normal, non-transformed, cells in culture requires the presence of growth factors, the removal of which, through serum deprivation, leads to a loss of Cdlc activity and consequent exit from the cell cycle as cells enter the quiescent phase, Go.
HCT-116 cells were plated in triplicate for each compound concentration to be tested in RPMI 1640 media containing 10% fetal calf serum at a density of either 200 or 2,000 cells per well in 24 well dishes, and incubated overnight at 37° C., 5% CO2. The media from the plate containing 2,000 cells per well was removed, cells were washed once with serum free media and 1 ml of serum free media was placed on cells. Tle plates containing cells both in the presence and absence of serum were incubated for 6 additional days.
To ensure that the cells had indeed exited the cell cyde upon serum withdrawal, the percentage of BrdU positive cells, indicative of those progressing through S phase, was determined in each experiment. For the purpose of this experiment, cellular viability was evaluated simultaneously with the use of SNARF-1, a fluorescent substrate of intracellular esterases which are only active in viable cells. Together, the evaluation of BrdU incorporation and SNARF-1 cleavage by flow cytometry provided an assessment of the viability of arrested cells on a single cell basis. For this analysis, the cells were stained with SNARF-1 as follows and then prepared for determination of BrdU incorporation as described above.
HCT-116 and IMR90 cells were plated at the density described below in T25 flasks in serum-containing media (RPMI-1640 or MEM-a with 10% FCS, respectively). After 24 hours of growth, the media was removed and, after washing the cells, replaced with serum-free media. • HCT-116+FCS 5,000 cells • HCT-116−FCS 100,000 cells • IMR90+FCS 100,000 cells • IMR90−FCS 200,000 cells
The IMR90 cells were grown for an additional 3 days and the HCT-116 cells were grown for an additional 6 days before pulsing with BrdU. A 50 μg aliquot of SNARF-1 (Molecular Probes catalog #C1272) was dissolved in 50 μl DMSO at room temperature for 10 minutes and then diluted into 10 ml PBS. The SNARF-1 was further diluted 1:64,000 before 200 μl was added to each tube of cells which had been cultured in the presence or absence of serum and pulsed with BrdU for 20 hours. The cells were incubated at 37° C. for 30 minutes and then washed with 3 ml of PBS.
These cells were then fixed and prepared for the measurement of BrdU incorporation as described above. The percentage of viable (FL-2) and BrdU positive (FL-1) cells was determined on a FACScan flow cytometer.

HCT-116 cells = test: BrdU incorporation into DNA (flow cytometry); format: cell-based, human; parameters: unit not given here; details: inhibition of BrdU incorporation, unit not given; for BrdU 24: analysis at 24 hours; for BrdU 48: analysis at 48 hours; for BrdU 72: analysis at 72 hours
Experimental: This method measured the percentage of cells that incorporated the nucleotide analog, BrdU, into newly synthesized DNA as cells progressed through the S phase of the cell cycle. The inhibition of BrdU incorporation was used as a measure of a Cdlc inhibitor's effect on S phase progression and DNA replication.
3 sets of HCT-116 cells (100,000 cells/set) were plated in T25 flasks and incubated with a test compound as above. Analysis was done at 24, 48, and 72 hours. BrdU was added to each T-25 flask from a stock of 10 mg/ml to a final concentration of 10 μM and the cells were incubated for an additional 16-18 hours at 37° C. The cells were then prepared for flow cytometric analysis according to manufacturer's protocol (BrdU Flow kit, BD-Pharmingen catalogue # 2354KK) as follows:
Cells were harvested (adherent and floating) from the T25 flasks directly into Falcon 12×75 flow cytometric tubes as above followed by fixation and permeabilization with the addition of 100 μl Cytofix/Cytoperm buffer (30 minutes, room temperature). The cells were then washed with 1 ml of Perm Wash buffer and the cell pellets were resuspended in 100 μl Cytoperm Plus buffer and incubated on ice for 10 minutes. The cells were then washed again with 1 ml of Perm Wash buffer and the fixation was repeated in 100 μl of Cytofix/Cyto Perm buffer for 10 minutes at room temperature. The cells were then washed with 1 ml of Perm Wash buffer. The cells were next treated for one hour at 37° C. with 100 μl DNase to expose incorporated BrdU followed by another wash step with 1 ml of Perm Wash buffer. […] Cells were protected from light and incubated at room temperature for 20-30 minutes. Following the incubation, the cells were washed with 1 ml of Perrn Wash buffer, resuspended in 300 μl of 2% FBS in PBS, and analyzed on the flow cytometer.

IMR90 = test: Calcein AM viability assay, IMR90; format: cell-based; details: IMR-90, normal human fibroblast, 72-hours incubation
Experimental: The potency of Cdk inhibitors, as measured by loss of cellular viability, was determined with the Calcein AM assay (Molecular Probes). Calcein AM is a substrate of intracellular esterases, which is cleaved only in viable cells to generate a fluorescent product that can be quantified with a fluorescent plate reader. The fluorescent signal is proportional to the number of viable cells, and thus loss of signal in response to the exposure of cells to Cdk inhibitors correlates with a loss of viability. This assay distinguishes cell cycle arrest from loss of viability and is thus well suited for the evaluation of Cdk inhibitors.
Cellular IC50's were determined in the human colorectal carcinoma cell line, HCT-116, and the normal human fibroblast, IMR90. Protein adjusted IC50's were also determined in HCT-116. Results are presented in Table 3 below (HCT-116 (viability/protein adjusted) and IMR-90).
HCT-116 or IMR90 cells were recovered from sub-confluent plates by trypsinization and 1,000 or 4,000 cells, respectively, were plated in 24-well dishes and incubated overnight at 37° C., 5% CO2. HCT-116 cells were cultured in RPMI-1640, 10% FCS, and IMR90 cells were cultured in Minimum Essential Medium-alpha, 10% FCS. After overnight incubation to allow.adlierence, the media was aspirated from each well and replaced with media containing a test compound at a concentration from 0 to 250 nM, spanning a total of 7 doses. The plates were returned to the incubator and cultured for an additional 3 days. […] After 72-hours incubation with the test compound, the cells were washed twice with 1×PBS, talking special care to remove all residual buffer.
A 5 μM Calcein AM. solution was prepared by dissolving a 50 μg aliquot of Calcein (Molecular Probes catalog # C3100) in 50 μl DMSO. After the Calcein had completely dissolved (10 minutes at room temperature), it was diluted into 10 ml PBS. Calcein/PBS (0.5 ml) was added to each well. The plates were incubated for 75 minutes at 37° C. (protected from light) and the fluorescent signal was read on a fluorescent plate reader (excitation 485/20 and emission 530/25).

| Compound | Arrested cell HCT (arrested HCT-116 cells) | BrdU 24 (HCT-116 cells) | BrdU 48 (HCT-116 cells) | BrdU 72 (HCT-116 cells) | pIC50 (IMR90) |
| --- | --- | --- | --- | --- | --- |
| CC(C)c1nn(-c2c(Cl)cccc2Cl)c2nc(Cc3ccc(O)c(CN4CCN(C(C)C)CC4)c3)[nH]c(=O)c12.Cl.Cl [Compound C] | <0.01 | <0.1 | <0.1 | <1 | > 7.00 |
| Cl.Cl.Cl.O=C(Nc1cccc2c1C(=O)c1c-2n[nH]c1-c1ccc(OCCN2CCCC2)cc1)NN1CCOCC1 [Compound I] | <0.1 | <0.01 | <0.1 | <0.1 | > 7.00 |
| CC(C)N1CCN(CCOc2ccc(-c3[nH]nc4c3C(=O)c3c(NC(=O)NN5CCOCC5)cccc3-4)cc2)CC1.Cl.Cl.Cl [E] | <0.1 | <0.01 | <0.1 | <0.1 | > 7.00 |
| CN1CCN(NC(=O)Nc2cccc3c2C(=O)c2c-3n[nH]c2-c2ccc(OCCN3CCCC3)cc2)CC1.Cl.Cl.Cl [F] | <0.1 | – | <0.1 | <1 | > 7.00 |
| CCCN(CCOc1ccc(-c2[nH]nc3c2C(=O)c2c(NC(=O)NN4CCOCC4)cccc2-3)cc1)CC1CC1.Cl.Cl.Cl [G] | <0.1 | <0.01 | <0.1 | <0.1 | > 7.00 |
| Cl.Cl.Cl.O=C(Nc1cccc2c1C(=O)c1c-2n[nH]c1-c1ccc(OCCN(CCO)CCO)cc1)NN1CCOCC1 [H] | <0.1 | <1 | <1 | <1 | > 7.00 |
| CC(C)N1CCN(Cc2cc(-c3[nH]nc4c3C(=O)c3c(NC(=O)NN5CCOCC5)cccc3-4)ccc2O)CC1.Cl.Cl.Cl.Cl [K] | <0.01 | <0.1 | <0.1 | <0.1 | < 7.00 |
| CN1CCN(NC(=O)Nc2cccc3c2C(=O)c2c-3n[nH]c2-c2ccc(OCCN3CCOCC3)cc2)CC1.Cl.Cl [Q] | <0.1 | <0.1 | <0.1 | <0.1 | > 7.00 |
